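Following 48 hours of exposure in 96-well plates, responses at five concentrations were used to interpolate endpoints linearly. GI50 is the concentration that inhibits growth by half.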 Active and inactive are the calls of the source. No stated cut-off is given here; in the data, active = GI50 up to about 1.1 µM and inactive = higher.
Tests used:
Assay in all cases: NCI anticancer screen, dose series, 48 h
CAKI-1 = tested on: CAKI-1
DU-145 = tested on: DU-145
EKVX = tested on: EKVX
HCT-116 = tested on: HCT-116
K562 = tested on: K562
MCF7 = tested on: MCF7
MOLT-4 = tested on: MOLT-4
NCI-H460 = tested on: NCI-H460
OVCAR-3 = tested on: OVCAR-3
OVCAR-4 = tested on: OVCAR-4
PC-3 = tested on: PC-3
RPMI-8226 = tested on: RPMI-8226
RXF 393 = tested on: RXF 393
SK-MEL-2 = tested on: SK-MEL-2
TK-10 = tested on: TK-10
UACC-257 = tested on: UACC-257
UACC-62 = tested on: UACC-62
SF-539 = tested on: SF-539
HL-60 = tested on: HL-60

Row | Compound | GI50 (CAKI-1) | GI50 (DU-145) | GI50 (EKVX) | GI50 (HCT-116) | GI50 (K562) | GI50 (MCF7) | GI50 (MOLT-4) | GI50 (NCI-H460) | GI50 (OVCAR-3) | GI50 (OVCAR-4) | GI50 (PC-3) | GI50 (RPMI-8226) | GI50 (RXF 393) | GI50 (SK-MEL-2) | GI50 (TK-10) | GI50 (UACC-257) | GI50 (UACC-62) | GI50 (SF-539) | GI50 (HL-60)
1 | Cc1ccc(C)n1-n1c(Cc2ccccc2)n[nH]c1=O | > 100 µM (inactive) | > 100 µM (inactive) | 61.7 µM (inactive) | > 100 µM (inactive) | > 100 µM (inactive) | > 100 µM (inactive) | > 100 µM (inactive) | > 100 µM (inactive) | > 100 µM (inactive) | > 100 µM (inactive) | > 100 µM (inactive) | 91.2 µM (inactive) | > 100 µM (inactive) | > 100 µM (inactive) | > 100 µM (inactive) | 46 µM (inactive) | > 100 µM (inactive) | – | –
2 | Cn1cc(C=C(C#N)C#N)c(=O)n(C)c1=O | > 100 µM (inactive) | > 100 µM (inactive) | > 100 µM (inactive) | > 100 µM (inactive) | – | > 100 µM (inactive) | 0.809 µM (active) | > 100 µM (inactive) | > 100 µM (inactive) | > 100 µM (inactive) | > 100 µM (inactive) | 52 µM (inactive) | > 100 µM (inactive) | > 100 µM (inactive) | > 100 µM (inactive) | > 100 µM (inactive) | > 100 µM (inactive) | > 100 µM (inactive) | –
3 | CCCCC1(C)C=C/C(=C2/C(=O)O/C(=C\C(=O)O)C2=O)O1 (stereo unspecified) | – | – | > 100 µM (inactive) | > 100 µM (inactive) | > 100 µM (inactive) | – | > 100 µM (inactive) | > 100 µM (inactive) | > 100 µM (inactive) | > 100 µM (inactive) | – | > 100 µM (inactive) | – | > 100 µM (inactive) | > 100 µM (inactive) | > 100 µM (inactive) | > 100 µM (inactive) | > 100 µM (inactive) | > 100 µM (inactive)
4 | Cc1ccc(S(=O)(=O)NC(CN)C(=O)O)cc1 (stereo unspecified) | > 100 µM (inactive) | > 100 µM (inactive) | > 100 µM (inactive) | > 100 µM (inactive) | – | > 100 µM (inactive) | 36.8 µM (inactive) | > 100 µM (inactive) | > 100 µM (inactive) | > 100 µM (inactive) | > 100 µM (inactive) | > 100 µM (inactive) | > 100 µM (inactive) | > 100 µM (inactive) | > 100 µM (inactive) | > 100 µM (inactive) | > 100 µM (inactive) | > 100 µM (inactive) | –
5 | COC(OC)[C@@H]1OC[C@H](n2ccc(=O)[nH]c2=O)[C@H]1O | > 100 µM (inactive) | > 100 µM (inactive) | > 100 µM (inactive) | > 100 µM (inactive) | > 100 µM (inactive) | > 100 µM (inactive) | > 100 µM (inactive) | > 100 µM (inactive) | > 100 µM (inactive) | > 100 µM (inactive) | > 100 µM (inactive) | > 100 µM (inactive) | 66.4 µM (inactive) | > 100 µM (inactive) | > 100 µM (inactive) | > 100 µM (inactive) | > 100 µM (inactive) | > 100 µM (inactive) | –
6 | O=C1C=C/C(=N/c2cccc3c(/N=C4/C=CC(=O)O4)cccc23)O1 | 18.9 µM (inactive) | > 100 µM (inactive) | 16.8 µM (inactive) | 24.8 µM (inactive) | 21.2 µM (inactive) | 33.3 µM (inactive) | 3.72 µM (inactive) | > 100 µM (inactive) | 51.6 µM (inactive) | 39.4 µM (inactive) | 48 µM (inactive) | 23.1 µM (inactive) | 20.7 µM (inactive) | > 100 µM (inactive) | 17.7 µM (inactive) | 22.3 µM (inactive) | 34.4 µM (inactive) | 19.1 µM (inactive) | –
7 | Cc1ccc2c(n1)NC(=O)C(Cc1ccccc1)(N=[N+]=[N-])C2=O (stereo unspecified) | > 100 µM (inactive) | > 100 µM (inactive) | – | > 100 µM (inactive) | > 100 µM (inactive) | > 100 µM (inactive) | > 100 µM (inactive) | > 100 µM (inactive) | > 100 µM (inactive) | > 100 µM (inactive) | > 100 µM (inactive) | – | > 100 µM (inactive) | – | > 100 µM (inactive) | > 100 µM (inactive) | > 100 µM (inactive) | > 100 µM (inactive) | –
8 | CCSC12CC3c4cccc5c4C(CN5C(=O)c4ccccc4)CC3(O1)N(C)C2=O (stereo unspecified) | 92 µM (inactive) | 51.8 µM (inactive) | 24.2 µM (inactive) | 30.1 µM (inactive) | 33.3 µM (inactive) | – | 22.2 µM (inactive) | 37.8 µM (inactive) | 40.8 µM (inactive) | 36.9 µM (inactive) | 22.9 µM (inactive) | – | 71.1 µM (inactive) | 40.3 µM (inactive) | 48.5 µM (inactive) | 29.4 µM (inactive) | 22.5 µM (inactive) | 26.9 µM (inactive) | 22.7 µM (inactive)
9 | C[n+]1c(-c2ccc(/C=N/NC(=S)N/N=C/c3ccc(-c4cn5ccsc5[n+]4C)cc3)cc2)cn2ccsc21 | – | – | > 100 µM (inactive) | > 100 µM (inactive) | > 10 µM (inactive) | > 100 µM (inactive) | > 100 µM (inactive) | > 100 µM (inactive) | – | > 100 µM (inactive) | > 100 µM (inactive) | 62.1 µM (inactive) | – | – | > 100 µM (inactive) | > 100 µM (inactive) | – | > 100 µM (inactive) | > 100 µM (inactive)
